The values below come from patent US20050053669A1, “Administration form for the oral application of poorly soluble acidic and amphorteric drugs” (Boehringer Ingelheim International GmbH, priority 2003, published 2005).

A short description of data set [1]: phase I study, plasma levels on increasing the dose. The data set is classed as in vivo, human. An excerpt: Generally increasing the dose in order to compensate for the reduced bioavailability in patients is frequently undesirable because of the waste of active substance and the greater burden on the patient and the associated risk of side effects, for example, or even totally impossible, on the grounds of drug safety.

A short description of data set [2]: solubility of the active substance. The data set is classed as physicochemical. As for the experimental part: The solubility of a compound may be determined by dispersing an excess of the compound at ambient temperature in the medium in question and shaking it vigorously for a defined length of time (approx. 1 to 24 h) until equilibrium is achieved. After filtration the pH is determined in the clear filtrate and the concentration of the dissolved substance is determined by spectral photometry or some other suitable analytical process.

Take `O=C(O)CCC/C=C(\c1ccc(CCNS(=O)(=O)c2ccc(Cl)cc2)cc1)c1cccnc1` [DT-TX 30]: in data set [1] (200 mg compared with 600 mg), the “plasma levels achieved with 200 mg” value is on record as “equal to those obtained with 600 mg”. Besides, in data set [1] (dose increased from 100 to 600 mg), the “higher plasma levels on increasing the dose” value is recorded as “about 50%”.
As to `CCCc1nc2c(C)cc(-c3nc4ccccc4n3C)cc2n1Cc1ccc(-c2ccccc2C(=O)O)cc1` [telmisartan], in data set [2], the “solubility in an acidic medium” value was “readily soluble”.
